From PubChem BioAssay AID248 (DTP/NCI, 2004) come the findings set out here.

Inconclusive results and toxic doses are left out.

The assay relates to L1210 leukemia ip in BDF1 mice, survival T/C. The experiment in a line: NCI In Vivo Anticancer Drug Screen. Data for tumor model L1210 Leukemia (intraperitoneal) in B6D2F1 (BDF1) mice. The note with it: endpoint: mean survival time, higher = longer survival. The method, boiled down:
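Tumor was transplanted into mice, which were then dosed with test compound or vehicle alone. Survival was recorded for each group, and the treated figure was expressed relative to the control figure.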

Where [1] appears, read: dose: 100.0 mg/kg/injection, schedule: Q04DX003 (ip), vehicle: saline.
The mark [2] stands for this setting: dose: 200.0 mg/kg/injection, schedule: Q04DX003 (ip), vehicle: saline.
[3] abbreviates: dose: 400.0 mg/kg/injection, schedule: Q04DX003 (ip), vehicle: saline.
Setting [4] is: dose: 25.0 mg/kg/injection, schedule: Q01DX009 (ip), vehicle: saline with Tween-80.
Where [5] appears, read: dose: 50.0 mg/kg/injection, schedule: Q01DX009 (ip), vehicle: saline with Tween-80.
Where [6] appears, read: dose: 100.0 mg/kg/injection, schedule: Q01DX009 (ip), vehicle: saline with Tween-80.
Setting [7] is: dose: 100.0 mg/kg/injection, schedule: Q04DX003 (ip), vehicle: saline with Tween-80.
The mark [8] stands for this setting: dose: 100.0 mg/kg/injection, schedule: Q04DX003 (ip), vehicle: Klucel (hydroxypropylcellulose) (HPC).
The mark [9] stands for this setting: dose: 200.0 mg/kg/injection, schedule: Q04DX003 (ip), vehicle: Klucel (hydroxypropylcellulose) (HPC).
[10] abbreviates: dose: 400.0 mg/kg/injection, schedule: Q04DX003 (ip), vehicle: Klucel (hydroxypropylcellulose) (HPC).
Where [11] appears, read: dose: 75.0 mg/kg/injection, schedule: Q01DX009 (ip), vehicle: Klucel (hydroxypropylcellulose) (HPC).
The mark [12] stands for this setting: dose: 150.0 mg/kg/injection, schedule: Q01DX009 (ip), vehicle: Klucel (hydroxypropylcellulose) (HPC).
[13] abbreviates: dose: 300.0 mg/kg/injection, schedule: Q01DX009 (ip), vehicle: Klucel (hydroxypropylcellulose) (HPC).
Setting [14] is: dose: 200.0 mg/kg/injection, schedule: Q04DX003 (ip), vehicle: saline with Tween-80.
The mark [15] stands for this setting: dose: 400.0 mg/kg/injection, schedule: Q04DX003 (ip), vehicle: saline with Tween-80.

`CC1CCOC(C)O1` (stereo unspecified): the T/C was 103 % of control (dose: 100.0 mg/kg/injection, schedule: Q01DX009 (ip), vehicle: saline); 100 % of control under setting [1]; 91 % of control (dose: 200.0 mg/kg/injection, schedule: Q01DX009 (ip), vehicle: saline); 94 % of control under setting [2]; 96 % of control (dose: 400.0 mg/kg/injection, schedule: Q01DX009 (ip), vehicle: saline); 94 % of control under setting [3].
For the compound `O=C(NC(NC(=O)c1ccc(Cl)cc1)C(Cl)(Cl)Cl)c1ccc(Cl)cc1`, the T/C is 100 % of control under setting [4], 93 % of control under setting [5], 92 % of control under setting [6] and 92 % of control under setting [7].
For `CC(=O)N(C)c1ccc(NC(=O)CCl)cc1`, the T/C by setting is: (dose: 100.0 mg/kg/injection, schedule: Q01DX009 (ip), vehicle: Klucel (hydroxypropylcellulose) (HPC)) 109 % of control; (dose: 200.0 mg/kg/injection, schedule: Q01DX009 (ip), vehicle: Klucel (hydroxypropylcellulose) (HPC)) 116 % of control.
As to `COP(=O)(OC)OC=C(Cl)Cl`, the T/C is 94 % of control (dose: 25.0 mg/kg/injection, schedule: Q04DX002 (ip), vehicle: saline); 105 % of control (dose: 50.0 mg/kg/injection, schedule: Q04DX002 (ip), vehicle: saline); 98 % of control (dose: 100.0 mg/kg/injection, schedule: Q04DX002 (ip), vehicle: saline).
As for `CC(=O)Nc1ccc(S(=O)(=O)Nc2ccc(C(=O)O)cc2)cc1`, the T/C by setting is: under setting [8], 100 % of control; under setting [9], 87 % of control; under setting [10], 92 % of control.
Take `Cc1ccc(O)c(C(=O)C(C)CCCC(C)C)c1` (stereo unspecified): the T/C by setting is: under setting [11], 89 % of control; under setting [12], 94 % of control; under setting [13], 100 % of control.
Take `O=C1C(Br)=CC(=NBr)C=C1Br`: the T/C runs as follows: (dose: 25.0 mg/kg/injection, schedule: Q04DX003 (ip), vehicle: Klucel (hydroxypropylcellulose) (HPC)) 101 % of control; (dose: 50.0 mg/kg/injection, schedule: Q04DX003 (ip), vehicle: Klucel (hydroxypropylcellulose) (HPC)) 101 % of control; under setting [8], 97 % of control.
In the case of `Cc1cc(C)c2ccc([S+](C)C)c-2c(C)c1`, the T/C was 105 % of control (dose: 5.0 mg/kg/injection, schedule: Q01DX001 (ip), vehicle: carboxymethylcellulose (CMC)); 100 % of control (dose: 10.0 mg/kg/injection, schedule: Q01DX001 (ip), vehicle: carboxymethylcellulose (CMC)); 105 % of control (dose: 20.0 mg/kg/injection, schedule: Q01DX001 (ip), vehicle: carboxymethylcellulose (CMC)); 108 % of control (dose: 40.0 mg/kg/injection, schedule: Q01DX001 (ip), vehicle: carboxymethylcellulose (CMC)); 97 % of control (dose: 80.0 mg/kg/injection, schedule: Q01DX001 (ip), vehicle: carboxymethylcellulose (CMC)).
Turning to `CC(C)(C)OC(=O)C1(C(=O)OC(C)(C)C)C2CCCCC21` (stereo unspecified), the T/C is 95 % of control (dose: 100.0 mg/kg/injection, schedule: Q01DX001 (ip), vehicle: Klucel (hydroxypropylcellulose) (HPC)); 101 % of control under setting [8]; 90 % of control (dose: 200.0 mg/kg/injection, schedule: Q01DX001 (ip), vehicle: Klucel (hydroxypropylcellulose) (HPC)); 101 % of control under setting [9]; 87 % of control (dose: 400.0 mg/kg/injection, schedule: Q01DX001 (ip), vehicle: Klucel (hydroxypropylcellulose) (HPC)); 96 % of control under setting [10].
As to `N#C/C(=C\C1CCCC([N+](=O)[O-])C1)C1CCC([N+](=O)[O-])CC1` (stereo unspecified), the T/C by setting is: (dose: 100.0 mg/kg/injection, schedule: Q04DX002 (ip), vehicle: Klucel (hydroxypropylcellulose) (HPC)) 122 % of control; (dose: 200.0 mg/kg/injection, schedule: Q04DX002 (ip), vehicle: Klucel (hydroxypropylcellulose) (HPC)) 100 % of control; (dose: 400.0 mg/kg/injection, schedule: Q04DX002 (ip), vehicle: Klucel (hydroxypropylcellulose) (HPC)) 100 % of control.
As to `c1ccc2cc(Nc3ccc(Nc4ccc5ccccc5c4)cc3)ccc2c1`, the T/C under setting [11] is 103 % of control; the T/C under setting [1] is 106 % of control; the T/C under setting [12] is 104 % of control; the T/C under setting [2] was 97 % of control; the T/C under setting [13] is 110 % of control; the T/C under setting [3] is 100 % of control.
In the case of `CCN=C(N)Nc1ccc(NC(=O)c2ccc(C(=O)Nc3ccc(NC(N)=NCC)cc3)cc2)cc1`, the T/C (dose: 0.12 mg/kg/injection, schedule: Q01DX Z (ip), vehicle: carboxymethylcellulose (CMC)) was 101 % of control; the T/C (dose: 0.25 mg/kg/injection, schedule: Q01DX Z (ip), vehicle: carboxymethylcellulose (CMC)) is 105 % of control; the T/C (dose: 1.0 mg/kg/injection, schedule: Q01DX Z (ip), vehicle: carboxymethylcellulose (CMC)) is 154 % of control; the T/C (dose: 2.0 mg/kg/injection, schedule: Q01DX Z (ip), vehicle: carboxymethylcellulose (CMC)) was 227 % of control; the T/C (dose: 3.0 mg/kg/injection, schedule: Q01DX Z (ip), vehicle: carboxymethylcellulose (CMC)) was 261 % of control; the T/C (dose: 4.0 mg/kg/injection, schedule: Q01DX Z (ip), vehicle: carboxymethylcellulose (CMC)) was 264 % of control. Also, the T/C was 198 % of control (dose: 6.0 mg/kg/injection, schedule: Q01DX Z (ip), vehicle: carboxymethylcellulose (CMC)); 155 % of control (dose: 8.0 mg/kg/injection, schedule: Q01DX Z (ip), vehicle: carboxymethylcellulose (CMC)); 122 % of control (dose: 11.0 mg/kg/injection, schedule: Q01DX001 (ip), vehicle: carboxymethylcellulose (CMC)); 122 % of control (dose: 11.0 mg/kg/injection, schedule: Q01DX001 (ip), vehicle: other); 121 % of control (dose: 16.0 mg/kg/injection, schedule: Q01DX Z (ip), vehicle: carboxymethylcellulose (CMC)); 151 % of control (dose: 21.0 mg/kg/injection, schedule: Q01DX001 (ip), vehicle: carboxymethylcellulose (CMC)). Besides, the T/C is, setting by setting: (dose: 21.0 mg/kg/injection, schedule: Q01DX001 (ip), vehicle: other) 155 % of control; (dose: 32.0 mg/kg/injection, schedule: Q01DX001 (ip), vehicle: carboxymethylcellulose (CMC)) 163 % of control; (dose: 32.0 mg/kg/injection, schedule: Q01DX001 (ip), vehicle: other) 164 % of control; (dose: 32.0 mg/kg/injection, schedule: Q01DX Z (ip), vehicle: carboxymethylcellulose (CMC)) 91 % of control; (dose: 48.0 mg/kg/injection, schedule: Q01DX001 (ip), vehicle: carboxymethylcellulose (CMC)) 209 % of control; (dose: 48.0 mg/kg/injection, schedule: Q01DX001 (ip), vehicle: other) 204 % of control. Besides, the T/C runs as follows: (dose: 50.0 mg/kg/injection, schedule: Q01DX Z (oral), vehicle: carboxymethylcellulose (CMC)) 118 % of control; (dose: 100.0 mg/kg/injection, schedule: Q01DX Z (oral), vehicle: carboxymethylcellulose (CMC)) 104 % of control; (dose: 200.0 mg/kg/injection, schedule: Q01DX Z (oral), vehicle: carboxymethylcellulose (CMC)) 96 % of control; (dose: 400.0 mg/kg/injection, schedule: Q01DX Z (oral), vehicle: carboxymethylcellulose (CMC)) 118 % of control.
For `COc1ccc(SC(=O)Nc2cc([N+](=O)[O-])ccc2Cl)cc1`, the T/C under setting [4] was 89 % of control and the T/C under setting [5] was 89 % of control.
On to `NNc1cnc2ccccc2n1`, for which the T/C is 90 % of control (dose: 100.0 mg/kg/injection, schedule: Q01DX009 (ip), vehicle: saline sonified); 101 % of control under setting [7]; 97 % of control under setting [14]; 113 % of control under setting [15].
For the compound `c1ccc2c(c1)ccc1ccccc12`, the T/C is 100 % of control under setting [7], 92 % of control under setting [14] and 92 % of control under setting [15].
Take `O=C(NNc1cccc(Cl)c1)C(O)C(O)C(O)C(O)CO` (stereo unspecified): the T/C under setting [5] was 107 % of control; the T/C under setting [6] was 98 % of control; the T/C (dose: 200.0 mg/kg/injection, schedule: Q01DX009 (ip), vehicle: saline with Tween-80) was 115 % of control.
Consider `Clc1ccc(SSc2ccc(Cl)cc2)cc1`, for which the T/C by setting is: under setting [7], 102 % of control; under setting [14], 94 % of control; under setting [15], 98 % of control.
